In PMC6795141 (RNA, 2019) one finds Kd and Ki data, which are given here for 3 molecules.

Series [1] deals with T1, PaTrmD (tRNA (m^1G37) methyltransferase TrmD, PA14_15990) (Pseudomonas aeruginosa, UniProt Q02RL6).
T1 sequence (Q02RL6 5-250): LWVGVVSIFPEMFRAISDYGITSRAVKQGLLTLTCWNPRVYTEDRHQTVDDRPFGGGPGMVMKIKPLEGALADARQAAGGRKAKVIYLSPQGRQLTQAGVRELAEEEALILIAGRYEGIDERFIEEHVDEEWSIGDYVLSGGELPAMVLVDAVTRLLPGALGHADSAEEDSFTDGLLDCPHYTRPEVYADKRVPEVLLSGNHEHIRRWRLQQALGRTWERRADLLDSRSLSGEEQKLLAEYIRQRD
In words: ITC with refolded PaTrmD. Format: binding.

Series [2] concerns the target T1, PaTrmD (tRNA (m^1G37) methyltransferase TrmD, PA14_15990). In words: crystal structures. In kind it is biochemical.
Another series concerns the target T2, PaTrmD (refolded) (Pseudomonas aeruginosa PA14, UniProt Q02RL6 5-250).
T2 sequence: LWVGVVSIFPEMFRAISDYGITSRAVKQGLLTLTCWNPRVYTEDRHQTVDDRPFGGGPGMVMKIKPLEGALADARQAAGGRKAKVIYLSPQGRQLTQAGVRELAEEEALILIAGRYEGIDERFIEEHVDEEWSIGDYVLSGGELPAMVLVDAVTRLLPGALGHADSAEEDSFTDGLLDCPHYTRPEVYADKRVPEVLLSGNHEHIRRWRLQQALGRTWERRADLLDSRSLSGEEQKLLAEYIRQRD
In words: ITC.

In the case of `C[S+](CC[C@H](N)C(=O)[O-])C[C@H]1O[C@@H](n2cnc3c(N)ncnc32)[C@H](O)[C@@H]1O` (stereo partly drawn) [SAM, S-adenosyl-L-methionine], the Kd (commonly a measure of binding affinity in units of concentration) in series [1] worked out at 14.4 ± 3.1 µM.

With `Nc1ncnc2c1ncn2[C@@H]1O[C@H](C[C@@H](N)CC[C@H](N)C(=O)O)[C@@H](O)[C@H]1O` [SFG, sinefungin], the inhibition constant (Ki) (commonly the equilibrium dissociation constant of an inhibitor or competing ligand from its target) in series [2] worked out at 0.41 ± 0.07 µM.

B1: tRNALeu(GAG) (structured_RNA)
RNA: GGGGCCGAGGUGGUGGAAUUGGUAGACACGCUACCUUGAGGUGGUAGUGGCCAUAGGCUGUAGGGGUUCGAGUCCCCUCCUCGGUACCA
modifications: none (unmodified transcript)
In turn, B1 yielded a dissociation constant Kd with PaTrmD (refolded) of 13.6 ± 3 µM.
